Patent US6113896A, “Pharmaceutical compositions containing ecotin and homologs thereof” (priority 1994, dated 2000)
Entries after “also recorded” stand apart in the source; their conditions may differ.

Experiments:
bovine chymotrypsin = experiment: Specificity assay, bovine chymotrypsin; type: biochemical; conditions: for Percent Activity of Chymotrypsin: 100 nM inhibitor, ~1 h, 10 nM enzyme; for inhibition of bovine chymotrypsin, in words: text statement
Procedure: (§1) Specificity Assays The following assays were used to test the specificity of ecotin and the M84K and M84R mutants against various proteases. Ecotin, M84K, M84R (100 nM each), or a control blank were incubated at room temperature for ~1 h with each enzyme. The enzymes tested (enzyme concentration, buffer, substrate) were FXa (1.2 nM, Buffer A, 0.7 mM Spectrozyme fXa), thrombin (3.7 nM, Buffer A, 0.7 mM S2366), TF.cndot.FVIIa (12.0 nM, Buffer B, 0.7 mM S2366), FXIa (1.2 nM, Buffer A containing 1 mg/ml BSA, 0.7 mM S2366), activated protein C (4.3 nM, Buffer A, 0.7 mM S2366), plasmin (15 nM, Buffer A, 1 mM S2251), single chain t-PA (15 nM, Buffer A, 2.5 mM S2288), Factor XIIa (10 nM, Buffer A, 0.5 mM S2302, plasma kallikrein (10 nM, Buffer A, 0.5 mM S2302), HLE (17 nM, 0.1 M Tris, pH 7.5, 0.5 M NaCl and 0.005 % Triton X-100, 0.42 mM MeOSuc-AAPV-pNA) (SEQ ID NO:9), bovine trypsin (10 nM, Buffer A, 0.25 mM Spectrozyme fXa), and bovine chymotrypsin (10 nM, Buffer A, 1 mM Suc-AAPF-pNA) (SEQ ID NO:10). Buffer A contains 50 mM Tris, pH 7.5, 100 mM NaCl, 2 mM CaCl2 and 0.005% Triton X-100. Buffer B contains 50 mM Tris, pH 7.5, 100 mM NaCl, 10 mM CaCl2, 0.5% BSA, 60 nM TF1-243,and 1 mM CHAPS. The initial change in absorbance at 405 nm was monitored after addition of substrate. Controls lacking inhibitor and/or enzyme were also assayed to assess the uninhibited rates and the background substrate hydrolysis rates, respectively.

FXa [1] = experiment: Ecotin·FXa dissociation rate constant (HLE trap); type: biochemical, human; conditions: for koff (values in parenthesis): calculated from (Ki)·(kon); for koff: measured in presence of excess HLE to trap free ecotin
Procedure: Determination of FXa dissociation rate constant The dissociation rate constant of the ecotin.cndot.FXa complex was measured using HLE to trap the free ecotin released from the complex. FXa (10 μM) was incubated for 1 h in TNCT buffer in the presence and absence of ecotin (12.5 μM) and diluted 1000-fold into TNCT buffer with and without HLE (500 nM). Aliquots (180 μl ) were removed at various times and initial rates of free FXa were measured at 405 nm with 20 μl of 5 mM Spectrozyme fXa. The product curve (free FXa versus time) was fit to equation 6; the value for koff was determined by nonlinear regression analysis.
To measure the dissociation rate constant of ecotin from FXa, the complex was diluted 1000-fold into buffer containing a 50-fold excess of HLE to trap the free ecotin and prevent reassociation. In the absence of HLE, reassociation of ecotin with FXa was so rapid that free FXa was barely detectible (FIG. 4B). Progress of dissociation was monitored as the increase in hydrolysis rate of Spectrozyme fXa resulting from the increasing free FXa with time. Because HLE prevented reassociation the rate of dissociation of the E·I complex is given by equation (5): [formula] which upon integration gives equation (6): […]
where [E] is the free [FXa] at any time t, [E.cndot.I]0 is the concentration of the complex at time zero, and koff is the first order dissociation rate constant. The time dependent E·I complex dissociation curve fit to equation (6) by nonlinear regression analysis is shown in FIG. 4B; the dissociation rate constant for ecotin tested is shown above in Table I.

plasma kallikrein = experiment: Specificity assay, plasma kallikrein; type: biochemical, human; conditions: for Percent Activity of Kallikrein: 100 nM inhibitor, ~1 h, 10 nM enzyme
Procedure: as §1

plasmin = experiment: Specificity assay, plasmin; type: biochemical, human; conditions: for Percent Activity of Plasmin: 100 nM inhibitor, ~1 h, 15 nM enzyme
Procedure: as §1

bovine trypsin = experiment: Specificity assay, bovine trypsin; type: biochemical; conditions: for Percent Activity of Trypsin: 100 nM inhibitor, ~1 h, 10 nM enzyme; for inhibition of bovine trypsin, in words: text statement
Procedure: as §1

FXa [2] = experiment: Specificity assay, FXa; type: biochemical, human; conditions: 100 nM inhibitor, ~1 h, 1.2 nM enzyme
Procedure: as §1

single chain t-PA = experiment: Specificity assay, single chain t-PA; type: biochemical, human; conditions: for Percent Activity of t-PA: 100 nM inhibitor, ~1 h, 15 nM enzyme
Procedure: as §1

Factor XIIa = experiment: Specificity assay, Factor XIIa; type: biochemical, human; conditions: for Percent Activity of Factor XIIa: 100 nM inhibitor, ~1 h, 10 nM enzyme
Procedure: as §1

FXIa = experiment: Specificity assay, FXIa; type: biochemical, human; conditions: for Percent Activity of Factor XIa: 100 nM inhibitor, ~1 h, 1.2 nM enzyme
Procedure: as §1

activated protein C = experiment: Specificity assay, activated protein C; type: biochemical, human; conditions: for Percent Activity of Activated protein C: 100 nM inhibitor, ~1 h, 4.3 nM enzyme
Procedure: as §1

HLE = experiment: Specificity assay, HLE; type: biochemical, human; conditions: for Percent Activity of HLE: 100 nM inhibitor, ~1 h, 17 nM enzyme
Procedure: as §1

[3] = text statement, listed as ecotin

Substance | Percent Activity of Chymotrypsin (bovine chymotrypsin) | koff (values in parenthesis) (FXa [1]) | Percent Activity of Kallikrein (plasma kallikrein) | inhibition of plasma kallikrein, in words (plasma kallikrein; text statement) | Percent Activity of Plasmin (plasmin) | inhibition of plasmin, in words (plasmin; text statement) | Percent Activity of Trypsin (bovine trypsin) | Percent Activity of Factor Xa (FXa [2]) | Percent Activity of t-PA (single chain t-PA) | inhibition of t-PA, in words (single chain t-PA; text statement) | Percent Activity of Factor XIIa (Factor XIIa) | inhibition of FXIIa, in words (Factor XIIa; text statement) | Percent Activity of Factor XIa (FXIa) | inhibition of FXIa, in words (FXIa; text statement) | Percent Activity of Activated protein C (activated protein C) | inhibition of activated protein C, in words (activated protein C; text statement) | Percent Activity of HLE (HLE) | inhibition of HLE, in words (HLE; text statement) | inhibition of bovine chymotrypsin, in words (bovine chymotrypsin) | inhibition of bovine trypsin, in words (bovine trypsin) | also measured
Ecotin: E. coli periplasmic protein having the 142 amino acid residue sequence reported by McGrath et al.; recombinant, P1 Met84 | 0% | 2.2e-05 s⁻¹ | 0% | potently inhibited | 100% | did not effectively inhibit | 0% | 0% | 100% | did not effectively inhibit | 0% | potently inhibited | 79% | did not effectively inhibit | 99% | did not effectively inhibit | 0% | potently inhibited | – | – | half-life of ecotin·FXa complex in vitro (FXa [1]): ca. 3 h; koff (FXa [1]): 6.5e-05 s⁻¹; koff (FXa [1]; listed as Wild type): 6.5e-05 s⁻¹; koff (FXa [1]; listed as ecotin): 6.5e-05 s⁻¹; inhibition of plasmin, in words (plasmin; [3]): little or no inhibition; inhibition of t-PA, in words (single chain t-PA; [3]): little or no inhibition; also recorded: No inhibition; inhibition of FXIa, in words (FXIa; [3]): little or no inhibition; inhibition of activated protein C, in words (activated protein C; [3]): little or no inhibition
M84K | 1% | 4.5e-06 s⁻¹ | 2% | still potently inhibited | 9% | significant inhibition | 0% | 2% | 100% | Neither ecotin, the M84R or M84K mutants inhibited | 0% | still potently inhibited | 12% | significant inhibition | 65% | significant inhibition | 85% | effectively diminished inhibition; also recorded: no longer inhibited | significantly inhibited | significantly inhibited | inhibition of plasma kallikrein, in words (plasma kallikrein; listed as P1 Lys mutant): significantly inhibited; inhibition of plasmin, in words (plasmin; listed as P1 Lys mutant): significantly inhibited; inhibition of t-PA, in words (single chain t-PA; listed as P1 Lys mutant): did not inhibit; inhibition of FXIIa, in words (Factor XIIa; listed as P1 Lys mutant): significantly inhibited; inhibition of FXIa, in words (FXIa; listed as P1 Lys mutant): significantly inhibited; inhibition of activated protein C, in words (activated protein C; listed as P1 Lys mutant): significantly inhibited; inhibition of HLE, in words (HLE; listed as P1 Lys mutant): did not inhibit
M84R | 0% | 1e-06 s⁻¹ | 1% | still potently inhibited | 10% | significant inhibition | 0% | 1% | 100% | Neither ecotin, the M84R or M84K mutants inhibited | 1% | still potently inhibited | 5% | significant inhibition | 50% | significant inhibition | 88% | effectively diminished inhibition; also recorded: no longer inhibited | significantly inhibited | significantly inhibited | inhibition of plasma kallikrein, in words (plasma kallikrein; listed as P1 Arg mutant): significantly inhibited; inhibition of plasmin, in words (plasmin; listed as P1 Arg mutant): significantly inhibited; inhibition of t-PA, in words (single chain t-PA; listed as P1 Arg mutant): did not inhibit; inhibition of FXIIa, in words (Factor XIIa; listed as P1 Arg mutant): significantly inhibited; inhibition of FXIa, in words (FXIa; listed as P1 Arg mutant): significantly inhibited; inhibition of activated protein C, in words (activated protein C; listed as P1 Arg mutant): significantly inhibited; inhibition of HLE, in words (HLE; listed as P1 Arg mutant): did not inhibit
